Source: US4587248A, “4-alkyl-thiophenyl-ethanolamines, having an activity the cerebral circulation, the blood platelet-aggregation and the lipenia” (priority 1981, dated 1986)
Like-named read-outs stand apart in the source and are kept apart here.

How the values were obtained:
[1] = system: isolated intestines of Guinea pigs; experiment: spasmolytic activity in vitro on isolated intestines of Guinea pigs
[2] = system: contractions caused by norepinephrine on the deferent duct; experiment: contractions caused by norepinephrine on the deferent duct (Barnett et al)
[3] = system: isolated intestines of rats; experiment: spasmolytic activity in vitro on isolated intestines of rats
isolated rat aorta = experiment: contractions of isolated rat aorta (Godfraind and Kaba 1969)
[4] = system: depolarized aorta of rats; experiment: contraction-promoting effect of bivalent calcium ions on the depolarized aorta of rats (Godfraind and Kaba 1972)
mice = details: for Slope (fiducial limits): LD50, mice; for LD50, fiducial limits / LD50, fiducial limits (micromol/kg equivalent): mice; for LD50, fiducial limits (micromol/kg equivalent): in brackets
in vivo = details: mouse, ip
rats = details: for LD50, fiducial limits / LD50, fiducial limits (micromol/kg equivalent): rats; for Slope (fiducial limits): LD50, rats; for LD50, fiducial limits (micromol/kg equivalent): in brackets

Question: Which spasmolytic activity [1] does the source give for CC(C)Sc1ccc([C@@H](O)[C@@H](C)N2CCN(C(=O)C=Cc3ccccc3)CC2)cc1 (relative stereo) [1-(4-isopropylthiophenyl)-2-(4-cinnamoyl-piperazine-1-yl)-1-propanol] here?
Answer: considerable spasmolytic activity

Question: What about the “inhibition of contractions caused by norepinephrine on the deferent duct” value [2] of the same compound?
Answer: inhibit the contractions caused by norepinephrine

Question: What about the spasmolytic activity [3] of the same compound?
Answer: considerable spasmolytic activity

Question: And the “inhibition of contractions of isolated rat aorta” value (isolated rat aorta)?
Answer: inhibit the contractions of isolated rat aorta

Question: And the “inhibition of the contraction-promoting effect of bivalent calcium ions on the depolarized aorta” value [4]?
Answer: has been inhibited

Question: With CC(C)Sc1ccc([C@@H](O)[C@H](C)N2CCN(C(=O)C=Cc3ccccc3)CC2)cc1 (relative stereo) [1-(4-isopropylthiophenyl)-2-(4-cinnamoyl-piperazine-1-yl)-1-propanol] as the compound, how does the spasmolytic activity [1] read?
Answer: considerable spasmolytic activity

Question: And the “inhibition of contractions caused by norepinephrine on the deferent duct” value [2]?
Answer: inhibit the contractions caused by norepinephrine

Question: And the spasmolytic activity [3]?
Answer: considerable spasmolytic activity

Question: What about the “inhibition of contractions of isolated rat aorta” value (isolated rat aorta) of the same compound?
Answer: inhibit the contractions of isolated rat aorta

Question: And the “inhibition of the contraction-promoting effect of bivalent calcium ions on the depolarized aorta” value [4]?
Answer: has been inhibited

Question: And the “Slope (fiducial limits)” value (mice; intraperitoneally)?
Answer: 1.36 (1.14-1.47)

Question: What about the “Slope (fiducial limits)” value (mice; orally) of the same compound?
Answer: 1.25 (1.10-1.42)

Question: And the “LD50, fiducial limits” value (mice; intraperitoneally (TABLE 2))?
Answer: 782-1082 mg/kg b.w.

Question: What about the “LD50, fiducial limits (micromol/kg equivalent)” value (mice; intraperitoneally (TABLE 2)) of the same compound?
Answer: 1842 to 2548 µmol/kg

Question: What about the “LD50, fiducial limits” value (mice; orally (TABLE 2)) of the same compound?
Answer: 3166-4208 mg/kg b.w.

Question: And the “LD50, fiducial limits (micromol/kg equivalent)” value (mice; orally (TABLE 2))?
Answer: 6867 to 9127 µmol/kg

Question: With CC(C)Sc1ccc([C@@H](O)[C@H](C)N2CCN(C(=O)C=Cc3ccccc3)CC2)cc1 (relative stereo) [Compound 1] as the compound, how does the LD50 (in vivo) read?
Answer: 920 mg/kg

Question: With CC(C)Sc1ccc([C@@H](O)[C@@H](C)N2CCN(C(=O)C=Cc3ccccc3)CC2)cc1 (relative stereo) [Compound 2] as the compound, how does the LD50 (in vivo) read?
Answer: > 4000 mg/kg

Question: With COc1cc(C=CC(=O)N2CCN(C(C)C(O)c3ccc(SC(C)C)cc3)CC2)cc(OC)c1OC (centres unmarked) [Compound 3] as the compound, how does the LD50 (in vivo) read?
Answer: > 400 mg/kg

Question: With CC(C)Sc1ccc(C(O)C(C)N2CCN(CC=Cc3ccccc3)CC2)cc1 (centres unmarked) [Compound 4] as the compound, how does the LD50 (in vivo) read?
Answer: 300 mg/kg

Question: For COc1cc(C=CCN2CCN(C(C)C(O)c3ccc(SC(C)C)cc3)CC2)cc(OC)c1OC (centres unmarked) [Compound 5], which LD50 (in vivo) is on record?
Answer: 75 mg/kg

Question: Which LD50 (in vivo) does the source give for CC(C)Sc1ccc(C(O)C(C)Nc2ccccc2)cc1 (centres unmarked) [Compound 6] here?
Answer: 400 mg/kg

Question: With CC(C)Sc1ccc(C(O)C(C)Nc2ccccc2C2CCCCC2)cc1 (centres unmarked) [Compound 7] as the compound, how does the LD50 (in vivo) read?
Answer: > 400 mg/kg

Question: Which LD50 (in vivo) does the source give for CC(C)Sc1ccc(C(O)C(C)Nc2cccc(C3CCCCC3)c2)cc1 (centres unmarked) [Compound 8] here?
Answer: 500 mg/kg

Question: Which LD50 (in vivo) does the source give for CC(C)Sc1ccc(C(O)C(C)Nc2ccc(C3CCCCC3)cc2)cc1 (centres unmarked) [Compound 9] here?
Answer: > 400 mg/kg

Question: With CC(C)Sc1ccc(C(O)C(C)NC2CCCCC2c2ccccc2)cc1 (centres unmarked) [Compound 11] as the compound, how does the LD50 (in vivo) read?
Answer: > 400 mg/kg

Question: For CC(C)Sc1ccc(C(O)C(C)NC2CCC(c3ccccc3)CC2)cc1 (centres unmarked) [Compound 13], which LD50 (in vivo) is on record?
Answer: 150 mg/kg

Question: With Fc1ccc(C(c2ccc(F)cc2)N2CCN(C/C=C/c3ccccc3)CC2)cc1 [Flunarizine] as the compound, how does the “LD50, fiducial limits” value (rats; intraperitoneally (TABLE 2)) read?
Answer: 332-543 mg/kg b.w.

Question: And the “LD50, fiducial limits” value (rats; orally (TABLE 2))?
Answer: 1714-2773 mg/kg b.w.

Question: And the “LD50, fiducial limits” value (mice; intraperitoneally (TABLE 2))?
Answer: 325-386 mg/kg b.w.

Question: And the “LD50, fiducial limits” value (mice; orally (TABLE 2))?
Answer: 498-687 mg/kg b.w.

Question: For CCCCCCCCNC(C)C(O)c1ccc(SC(C)C)cc1 (centres unmarked) [Suloctidil], which “Slope (fiducial limits)” value (rats; intraperitoneally) is on record?
Answer: 1.86 (1.42-2.44)

Question: And the “Slope (fiducial limits)” value (rats; orally)?
Answer: 1.18 (1.13-1.22)

Question: What about the “LD50, fiducial limits” value (rats; intraperitoneally (TABLE 2)) of the same compound?
Answer: 32-69 mg/kg b.w.

Question: What about the “LD50, fiducial limits (micromol/kg equivalent)” value (rats; intraperitoneally (TABLE 2)) of the same compound?
Answer: 94.8 to 204.4 µmol/kg

Question: And the “LD50, fiducial limits” value (rats; orally (TABLE 2))?
Answer: 1603-1976 mg/kg b.w.

Question: And the “LD50, fiducial limits (micromol/kg equivalent)” value (rats; orally (TABLE 2))?
Answer: 4749 to 5854 µmol/kg

Question: What about the LD50 (in vivo) of the same compound?
Answer: 32.5 mg/kg

Question: What about the “Slope (fiducial limits)” value (mice; intraperitoneally) of the same compound?
Answer: 1.55 (1.33-1.82)

Question: And the “Slope (fiducial limits)” value (mice; orally)?
Answer: 1.24 (1.18-1.30)

Question: And the “LD50, fiducial limits” value (mice; intraperitoneally (TABLE 2))?
Answer: 26.8-39.4 mg/kg b.w.

Question: And the “LD50, fiducial limits (micromol/kg equivalent)” value (mice; intraperitoneally (TABLE 2))?
Answer: 70.4 to 116.7 µmol/kg

Question: What about the “LD50, fiducial limits” value (mice; orally (TABLE 2)) of the same compound?
Answer: 2016-2511 mg/kg b.w.

Question: And the “LD50, fiducial limits (micromol/kg equivalent)” value (mice; orally (TABLE 2))?
Answer: 5972 to 7439 µmol/kg
